According to ChEMBL document CHEMBL1201862, “PubChem BioAssay data set” (2004):
Active and inactive are the calls of the source. For most assays here, no stated cut-off is given here; in the data, actives have a measured EC50 and inactives only a lower limit.

Assays:
[1] = luciferase reporter signal suppression in cells – H4 neuroglioma cells, luminescence, dose response (AID 1990); type: functional, cell-based
[2] = Luminescence Cell-Based Dose Response HTS to Identify Inhibitors of 5'UTR Stem-Loop Driven Prion Protein mRNA Translation in H4 Neuroglioblastoma Cells. [Related pubchem assays: 1827 (Project Summary), 1813 (Primary HTS)]; type: functional
[3] = alpha-synuclein stem-loop luciferase translation blockers – H4 neuroglioma cells, luminescence, confirmation (AID 1988); type: functional, cell-based
[4] = biological target: T1, Heat shock factor protein 1 (Mus musculus, UniProt P38532); experiment: decrease of HSF1-responsive luciferase luminescence – cell-based, NIH3T3, dose retest, confirmation (AID 2382); type: functional;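 further: NIH3T3 fibroblasts with HSF1-driven luciferase reporter stressed by proteasome inhibitor MG132; luminescence from HSF1-driven luciferase expression after 8 hours of MG132 stress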
T1 sequence (P38532 whole entry): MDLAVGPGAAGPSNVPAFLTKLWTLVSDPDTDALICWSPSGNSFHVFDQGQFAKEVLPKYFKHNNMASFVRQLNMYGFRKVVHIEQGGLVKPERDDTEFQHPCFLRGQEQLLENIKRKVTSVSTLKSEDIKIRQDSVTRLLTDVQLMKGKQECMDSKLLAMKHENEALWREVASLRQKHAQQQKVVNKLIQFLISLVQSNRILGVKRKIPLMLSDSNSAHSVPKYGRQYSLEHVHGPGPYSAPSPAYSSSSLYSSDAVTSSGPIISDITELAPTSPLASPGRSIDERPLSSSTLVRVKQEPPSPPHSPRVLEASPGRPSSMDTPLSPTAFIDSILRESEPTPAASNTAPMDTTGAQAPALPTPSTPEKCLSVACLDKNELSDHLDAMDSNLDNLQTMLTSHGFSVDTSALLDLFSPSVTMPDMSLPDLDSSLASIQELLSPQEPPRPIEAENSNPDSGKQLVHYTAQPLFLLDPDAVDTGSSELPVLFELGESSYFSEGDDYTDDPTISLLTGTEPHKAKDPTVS

[5] = biological target: T2, Replicative DNA helicase DnaB (Mycobacterium tuberculosis, UniProt P9WMR3); experiment: DnaB intein splicing inhibitors, dose response, biochemical, cell-free fluorescence (AID 449749); type: functional
T2 sequence (P9WMR3 whole entry): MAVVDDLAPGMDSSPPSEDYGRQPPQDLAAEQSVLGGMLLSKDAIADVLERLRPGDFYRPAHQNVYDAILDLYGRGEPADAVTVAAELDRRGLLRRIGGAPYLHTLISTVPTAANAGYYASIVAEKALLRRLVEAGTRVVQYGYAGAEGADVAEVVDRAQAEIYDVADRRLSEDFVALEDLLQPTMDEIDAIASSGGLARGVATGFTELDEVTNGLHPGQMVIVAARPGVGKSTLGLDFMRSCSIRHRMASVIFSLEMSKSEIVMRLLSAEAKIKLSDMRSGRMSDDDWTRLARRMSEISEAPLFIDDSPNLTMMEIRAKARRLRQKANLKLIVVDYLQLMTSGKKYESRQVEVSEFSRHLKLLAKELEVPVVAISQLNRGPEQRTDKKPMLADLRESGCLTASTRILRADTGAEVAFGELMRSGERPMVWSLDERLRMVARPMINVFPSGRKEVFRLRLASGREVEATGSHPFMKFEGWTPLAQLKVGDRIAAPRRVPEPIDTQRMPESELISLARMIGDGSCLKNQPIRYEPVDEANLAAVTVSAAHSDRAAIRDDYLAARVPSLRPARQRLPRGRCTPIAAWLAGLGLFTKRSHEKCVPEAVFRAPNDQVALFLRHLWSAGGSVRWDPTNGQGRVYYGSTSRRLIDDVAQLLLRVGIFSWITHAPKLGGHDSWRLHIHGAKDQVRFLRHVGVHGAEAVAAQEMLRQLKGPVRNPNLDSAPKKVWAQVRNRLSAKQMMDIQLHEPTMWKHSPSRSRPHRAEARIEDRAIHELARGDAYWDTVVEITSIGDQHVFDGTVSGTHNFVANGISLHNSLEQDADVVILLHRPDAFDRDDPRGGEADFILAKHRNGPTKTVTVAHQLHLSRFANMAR

Protein RecA = biological target: T3, Protein RecA (Mycobacterium tuberculosis, UniProt P9WHJ3); experiment: Fluorescence Cell-Free Homogeneous Dose Retest to Identify Inhibitors of RecA-Intein Splicing Activity. [Related pubchem assays (depositor defined):AID2097, AID2223, AID489010, AID492950]; type: functional
T3 sequence (P9WHJ3 whole entry): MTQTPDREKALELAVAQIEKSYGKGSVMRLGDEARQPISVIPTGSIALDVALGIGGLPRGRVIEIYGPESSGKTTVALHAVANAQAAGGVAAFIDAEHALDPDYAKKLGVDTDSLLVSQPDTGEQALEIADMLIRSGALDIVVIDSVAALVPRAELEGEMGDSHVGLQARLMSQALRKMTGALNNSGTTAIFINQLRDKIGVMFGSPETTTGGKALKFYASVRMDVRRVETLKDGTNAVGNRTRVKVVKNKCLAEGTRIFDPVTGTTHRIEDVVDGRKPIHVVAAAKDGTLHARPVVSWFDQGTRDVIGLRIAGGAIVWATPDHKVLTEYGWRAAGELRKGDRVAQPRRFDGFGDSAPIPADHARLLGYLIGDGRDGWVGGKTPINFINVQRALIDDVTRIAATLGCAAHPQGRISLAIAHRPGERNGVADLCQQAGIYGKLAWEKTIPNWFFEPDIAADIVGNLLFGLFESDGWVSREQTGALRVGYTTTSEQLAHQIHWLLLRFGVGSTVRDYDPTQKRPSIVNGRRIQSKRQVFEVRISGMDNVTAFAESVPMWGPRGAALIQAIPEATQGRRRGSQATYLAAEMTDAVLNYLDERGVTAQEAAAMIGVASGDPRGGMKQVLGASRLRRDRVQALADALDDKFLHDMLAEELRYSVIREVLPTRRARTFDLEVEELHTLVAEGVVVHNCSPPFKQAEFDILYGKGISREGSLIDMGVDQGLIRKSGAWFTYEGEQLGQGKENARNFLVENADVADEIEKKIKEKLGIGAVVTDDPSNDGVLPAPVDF

Protein skinhead-1 = biological target: T4, Protein skinhead-1 (Caenorhabditis elegans, UniProt P34707); type: functional
T4 sequence (P34707 whole entry): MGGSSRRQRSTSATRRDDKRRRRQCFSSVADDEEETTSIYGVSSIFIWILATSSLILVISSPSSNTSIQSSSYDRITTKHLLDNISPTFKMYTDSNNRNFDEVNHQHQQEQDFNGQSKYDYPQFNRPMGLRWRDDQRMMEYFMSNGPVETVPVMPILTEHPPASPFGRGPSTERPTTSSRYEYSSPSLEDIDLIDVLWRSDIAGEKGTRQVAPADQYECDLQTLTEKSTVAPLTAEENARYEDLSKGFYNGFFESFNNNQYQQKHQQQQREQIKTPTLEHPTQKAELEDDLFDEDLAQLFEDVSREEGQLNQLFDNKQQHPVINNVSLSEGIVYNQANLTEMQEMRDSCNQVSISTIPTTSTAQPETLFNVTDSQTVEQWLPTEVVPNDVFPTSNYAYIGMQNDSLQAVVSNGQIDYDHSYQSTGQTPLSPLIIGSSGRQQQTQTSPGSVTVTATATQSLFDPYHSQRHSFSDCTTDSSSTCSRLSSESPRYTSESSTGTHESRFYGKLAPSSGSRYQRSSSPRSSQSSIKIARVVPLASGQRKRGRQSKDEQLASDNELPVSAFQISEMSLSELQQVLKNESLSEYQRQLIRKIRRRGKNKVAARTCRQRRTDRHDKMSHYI

[6] = Luminescence Cell-Based Dose Response HTS to Identify Activators of Luciferase Translation or Activity in H4 […] Cells. [Related pubchem assays: 1829 (Project Summary), 1814 (Primary HTS)]; type: functional
H4 = experiment: Luminescence Cell-Based Dose Response HTS to Identify Activators of 5'UTR Stem-Loop Driven Prion Protein mRNA Translation in H4 Neuroglioblastoma Cells. [Related pubchem assays: 1829 (Project Summary), 1814 (Primary HTS)]; type: functional; details: Homo sapiens

## Cc1cc(Oc2ccc3ccccc3c2)nc(SCC(=O)c2ccccc2)n1
[1]
  EC50: > 120 µM (not active)
[2]
  EC50: 15 µM (active)
[3]
  EC50: 26.9 µM (active)

## CCOc1ccc(CNS(=O)(=O)c2c(C)nc3scc(C)n3c2=O)cc1OC
[4]
  EC50: > 195 µM (not active)

## O=C(Nc1ccc(N2CCN(c3ccc(O)cc3)CC2)cc1)Oc1ccccc1
[4]
  EC50: > 195 µM (not active)

## COc1cc(-c2onc3ccc(Br)cc23)cc(OC)c1OC
[1]
  EC50: > 120 µM (not active)
[2]
  EC50: 10.8 µM (active)
[3]
  EC50: 4.29 µM (active)

## CCOc1ccccc1-n1c(CN2CCN(C(=O)c3ccco3)CC2)nc2ccccc2c1=O
[1]
  EC50: 8.25 µM (active)
[2]
  EC50: 8.43 µM (active)
[3]
  EC50: 7.97 µM (active)

## Cc1n[nH]c2c1C(c1ccco1)C(C#N)=C(N)O2 (configuration not stated)
[5]
  AC50: 54.1 µM (active)
Protein RecA
  EC50: 4.28 µM (active)

## CC(C)CCNC(=O)c1cnn2c(C(F)(F)F)cc(-c3ccco3)nc12
Protein skinhead-1
  IC50: > 100 µM (inactive)

## O=C(Nc1ccccc1-c1nc2ccccc2s1)c1cccnc1
[4]
  EC50: > 195 µM (not active)

## N#CC1=C(N)Oc2[nH]nc(-c3cccs3)c2C1c1ccoc1 (configuration not stated)
[5]
  AC50: 10.4 µM (active)
Protein RecA
  EC50: 7.09 µM (active)

## O=C(c1cnn2c(C(F)F)cc(-c3ccccc3)nc12)N1CCCc2ccccc21
[1]
  EC50: 19.2 µM (active)
[2]
  EC50: 23.8 µM (active)
[3]
  EC50: 26.3 µM (active)

## CC1CCc2nc(NC(=O)C3COc4ccccc4O3)sc2C1 (configuration not stated)
[1]
  EC50: 5.93 µM (inconclusive)
[2]
  EC50: 10 µM (active)
[3]
  EC50: 5.45 µM (active)

## COc1ccc(CNC(=O)C2CCN(S(=O)(=O)c3ccc4c(c3)C(C)(C)C(=O)N4C)CC2)cc1
[4]
  EC50: 55.2 µM (active)

## Brc1ccc(-c2nc(-c3ccncc3)no2)o1
Protein skinhead-1
  IC50: 86.1 µM (inactive)

## COc1ccc(C=O)cc1CN1CCCN(Cc2ccc(Cl)cc2)S1(=O)=O
[4]
  EC50: > 195 µM (not active)

## Cc1ccccc1Cn1nnc2c1C(=O)c1ccccc1C2=O
[1]
  EC50: > 120 µM (not active)
[2]
  EC50: > 120 µM (not active)
[3]
  EC50: > 60 µM (not active)

## O=S(=O)(O)Oc1c[nH]c2ccccc12
[5]
  AC50: 1.34 µM (active)
Protein RecA
  EC50: 0.155 µM (active)

## CCCC(=O)Nc1cccc(NC(=O)c2cccc([N+](=O)[O-])c2C)c1
[4]
  EC50: 20.5 µM (active)

## O=C(Nc1nc(C(F)(F)F)n[nH]1)c1cccs1
[5]
  AC50: 3.65 µM (active)
Protein RecA
  EC50: 9.84 µM (active)

## COc1cc(C2NC(=O)NC(C)=C2C(=O)OCC2CCCO2)ccc1O (configuration not stated)
[4]
  EC50: > 195 µM (not active)

## O=C(c1ccccc1)N1C(=O)C(c2ccccc2)Oc2ccccc21 (configuration not stated)
[1]
  EC50: > 120 µM (not active)
[2]
  EC50: > 120 µM (not active)
[3]
  EC50: > 120 µM (not active)

## COCCCNC(=O)COc1ccc2oc3c(c2c1)CCCC3
Protein skinhead-1
  IC50: > 100 µM (inactive)

## O=S(=O)(c1cc(Cl)ccc1Cl)N1CCC2(CC1)OCCO2
[4]
  EC50: > 195 µM (not active)

## O=C(OCc1ccccc1)c1ccc2c(c1)-c1ccccc1C2=O
[6]
  EC50: 14.8 µM (active)
H4
  EC50: 11.1 µM (active)

## Cc1ccc(Cl)c(N/C=C/C(=O)c2ccccc2)c1
Protein skinhead-1
  IC50: 27.9 µM (active)

## CC(Oc1ccc(Cl)cc1)c1ccnn1S(C)(=O)=O (configuration not stated)
Protein skinhead-1
  IC50: > 100 µM (inactive)

## CCC(=O)CCC(=O)c1ccc2ccccc2c1
[4]
  EC50: > 195 µM (not active)

## O=c1c([N+](=O)[O-])c(N2CCOCC2)c2ccccc2n1Cc1ccccc1
[1]
  EC50: 19 µM (active)
[2]
  EC50: > 120 µM (not active)
[3]
  EC50: > 120 µM (not active)

## Cc1ccc(-c2nnc(-c3cccs3)o2)cc1
Protein skinhead-1
  IC50: 35.5 µM (active)

## N#Cc1cc([N+](=O)[O-])ccc1NC(=O)COC(=O)CCC1CCCCC1
[5]
  AC50: 1.72 µM (active)
Protein RecA
  EC50: 3.31 µM (active)

## O=C(c1cnn2c(C(F)(F)F)cc(-c3ccco3)nc12)N1CCCc2ccccc21
Protein skinhead-1
  IC50: > 100 µM (inactive)

## CS(=O)(=O)NNC(=O)CN1C(=O)C2C3C=CC(C3)C2C1=O (configuration not stated)
[1]
  EC50: > 120 µM (not active)
[2]
  EC50: 22.1 µM (active)
[3]
  EC50: > 120 µM (not active)

## Cn1c(SCC(=O)NCC2CCCO2)ncc(C(=O)Nc2ccc(F)cc2)c1=O (configuration not stated)
[5]
  AC50: 0.51 µM (active)
Protein RecA
  EC50: 0.315 µM (active)

## O=S(=O)(Nc1c(O)ccc2ccccc12)c1ccc(F)cc1
[5]
  AC50: 12.2 µM (active)
Protein RecA
  EC50: 1.16 µM (active)

## CC(=O)/C(=N\Nc1ccc(Cl)cc1)Sc1nnc(-c2ccccc2)n1-c1ccccc1
[4]
  EC50: > 195 µM (not active)

## Cc1cc(=O)n(-c2ccccc2Cl)[nH]1
[5]
  AC50: 10.7 µM (active)
Protein RecA
  EC50: 5.4 µM (active)

## C/C(CC(=O)Nc1ccccn1)=N\NC(=O)c1cccc(C)c1
[5]
  AC50: 20.1 µM (active)
Protein RecA
  EC50: 7.75 µM (active)

## COc1ccc(CCN2C(=O)CS/C2=N\NC(=O)c2ccc(C(C)(C)C)cc2)cc1OC
[1]
  EC50: 22.4 µM (active)
[2]
  EC50: 21.1 µM (active)
[3]
  EC50: > 120 µM (not active)
